Source: PubChem BioAssay (NCI)
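96-well plates; 48 h exposure; 5 concentrations. Endpoints by linear interpolation between flanking doses. Not reached: highest tested concentration assigned. TGI denotes the concentration required for complete inhibition of growth.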

Columns and labels:
Assay in all cases: inhibition of tumour cell growth, NCI panel, 48 h
U251 CNS = tested on: U251 CNS
CAKI-1 renal = tested on: CAKI-1 renal
786-0 renal = tested on: 786-0 renal
MALME-3M melanoma = tested on: MALME-3M melanoma
EKVX NSCLC = tested on: EKVX NSCLC
HOP-62 NSCLC = tested on: HOP-62 NSCLC
NCI-H226 lung = tested on: NCI-H226 lung
SR leukemia = tested on: SR leukemia
DU-145 prostate = tested on: DU-145 prostate
SK-MEL-2 melanoma = tested on: SK-MEL-2 melanoma
SW-620 colon = tested on: SW-620 colon
HL-60(TB) leukemia = tested on: HL-60(TB) leukemia
TK-10 renal = tested on: TK-10 renal
MCF7 breast = tested on: MCF7 breast
HOP-92 NSCLC = tested on: HOP-92 NSCLC
RPMI-8226 leukemia = tested on: RPMI-8226 leukemia
UO-31 renal = tested on: UO-31 renal
OVCAR-8 ovarian = tested on: OVCAR-8 ovarian
UACC-62 melanoma = tested on: UACC-62 melanoma
HT29 colon = tested on: HT29 colon
HCT-116 colon = tested on: HCT-116 colon
IGROV1 ovarian = tested on: IGROV1 ovarian
RXF 393 renal = tested on: RXF 393 renal
OVCAR-3 ovarian = tested on: OVCAR-3 ovarian
K-562 leukemia = tested on: K-562 leukemia
OVCAR-4 ovarian = tested on: OVCAR-4 ovarian
SK-MEL-28 melanoma = tested on: SK-MEL-28 melanoma
SNB-19 CNS = tested on: SNB-19 CNS
PC-3 prostate = tested on: PC-3 prostate
MOLT-4 leukemia = tested on: MOLT-4 leukemia
LOX IMVI melanoma = tested on: LOX IMVI melanoma
SK-OV-3 ovarian = tested on: SK-OV-3 ovarian
NCI-H23 lung = tested on: NCI-H23 lung
SF-539 CNS = tested on: SF-539 CNS
MDA-MB-435 = tested on: MDA-MB-435
SF-268 CNS = tested on: SF-268 CNS
A549 NSCLC = tested on: A549 NSCLC
SK-MEL-5 melanoma = tested on: SK-MEL-5 melanoma
KM12 colon = tested on: KM12 colon
NCI-H460 lung = tested on: NCI-H460 lung
HCT-15 colon = tested on: HCT-15 colon
ACHN renal = tested on: ACHN renal
T-47D breast = tested on: T-47D breast
A498 renal = tested on: A498 renal
MDA-N = tested on: MDA-N
MDA-MB-231 breast = tested on: MDA-MB-231 breast
UACC-257 melanoma = tested on: UACC-257 melanoma
OVCAR-5 ovarian = tested on: OVCAR-5 ovarian
COLO 205 colon = tested on: COLO 205 colon
NCI/ADR-RES ovarian = tested on: NCI/ADR-RES ovarian
CCRF-CEM leukemia = tested on: CCRF-CEM leukemia
M14 melanoma = tested on: M14 melanoma
BT-549 breast = tested on: BT-549 breast
HS 578T breast = tested on: HS 578T breast
SF-295 CNS = tested on: SF-295 CNS
HCC-2998 colon = tested on: HCC-2998 colon
SN12C renal = tested on: SN12C renal
NCI-H522 lung = tested on: NCI-H522 lung
SNB-75 CNS = tested on: SNB-75 CNS

With Cc1[nH]c(=O)nc2nc3ccc(Cl)cc3c(N(CCO)CCO)c12 the TGI (U251 CNS) was > 100 µM, the TGI (CAKI-1 renal) was > 100 µM and the TGI (786-0 renal) was > 100 µM. For the same molecule, the TGI (MALME-3M melanoma) was > 100 µM, the TGI (EKVX NSCLC) was > 100 µM and the TGI (HOP-62 NSCLC) was > 100 µM. For the same molecule, the TGI (NCI-H226 lung) was > 100 µM, the TGI (SR leukemia) was > 100 µM and the TGI (DU-145 prostate) was > 100 µM. For the same molecule, the TGI (SK-MEL-2 melanoma) was > 100 µM, the TGI (SW-620 colon) was > 100 µM and the TGI (HL-60(TB) leukemia) was > 100 µM. For the same molecule, the TGI (TK-10 renal) was > 100 µM, the TGI (MCF7 breast) was > 100 µM and the TGI (HOP-92 NSCLC) was > 100 µM. The TGI (RPMI-8226 leukemia) was > 100 µM, the TGI (UO-31 renal) was > 100 µM and the TGI (OVCAR-8 ovarian) was > 100 µM. The TGI (UACC-62 melanoma) was > 100 µM, the TGI (HT29 colon) was > 100 µM and the TGI (HCT-116 colon) was > 100 µM. For the same molecule, the TGI (IGROV1 ovarian) was > 100 µM, the TGI (RXF 393 renal) was > 100 µM and the TGI (OVCAR-3 ovarian) was > 100 µM. For the same molecule, the TGI (K-562 leukemia) was > 100 µM, the TGI (OVCAR-4 ovarian) was > 100 µM and the TGI (SK-MEL-28 melanoma) was > 100 µM. The TGI (SNB-19 CNS) was > 100 µM, the TGI (PC-3 prostate) was > 100 µM and the TGI (MOLT-4 leukemia) was > 100 µM. For the same molecule, the TGI (LOX IMVI melanoma) was > 100 µM, the TGI (SK-OV-3 ovarian) was > 100 µM and the TGI (NCI-H23 lung) was > 100 µM. For the same molecule, the TGI (SF-539 CNS) was > 100 µM, the TGI (MDA-MB-435) was > 100 µM and the TGI (SF-268 CNS) was > 100 µM. For the same molecule, the TGI (A549 NSCLC) was > 100 µM, the TGI (SK-MEL-5 melanoma) was > 100 µM and the TGI (KM12 colon) was > 100 µM. For the same molecule, the TGI (NCI-H460 lung) was > 100 µM, the TGI (HCT-15 colon) was > 100 µM and the TGI (ACHN renal) was > 100 µM. For the same molecule, the TGI (T-47D breast) was > 100 µM, the TGI (A498 renal) was > 100 µM and the TGI (MDA-N) was > 100 µM. For the same molecule, the TGI (MDA-MB-231 breast) was > 100 µM, the TGI (UACC-257 melanoma) was > 100 µM and the TGI (OVCAR-5 ovarian) was > 100 µM. For the same molecule, the TGI (COLO 205 colon) was > 100 µM, the TGI (NCI/ADR-RES ovarian) was > 100 µM and the TGI (CCRF-CEM leukemia) was > 100 µM. The TGI (M14 melanoma) was > 100 µM, the TGI (BT-549 breast) was > 100 µM and the TGI (HS 578T breast) was > 100 µM. The TGI (SF-295 CNS) was > 100 µM, the TGI (HCC-2998 colon) was > 100 µM and the TGI (SN12C renal) was > 100 µM. The TGI (NCI-H522 lung) was 48 µM.

For CCn1c(=O)c2cn[nH]c2n(C)c1=O, the TGI (U251 CNS) was > 100 µM, the TGI (CAKI-1 renal) was > 100 µM and the TGI (786-0 renal) was > 100 µM. For the same molecule, the TGI (MALME-3M melanoma) was > 100 µM, the TGI (EKVX NSCLC) was > 100 µM and the TGI (HOP-62 NSCLC) was > 100 µM. For the same molecule, the TGI (NCI-H226 lung) was > 100 µM, the TGI (SR leukemia) was > 100 µM and the TGI (DU-145 prostate) was > 100 µM. The TGI (SK-MEL-2 melanoma) was > 100 µM, the TGI (SW-620 colon) was > 100 µM and the TGI (TK-10 renal) was > 100 µM. For the same molecule, the TGI (MCF7 breast) was > 100 µM, the TGI (HOP-92 NSCLC) was > 100 µM and the TGI (RPMI-8226 leukemia) was > 100 µM. For the same molecule, the TGI (UO-31 renal) was > 100 µM, the TGI (OVCAR-8 ovarian) was > 100 µM and the TGI (UACC-62 melanoma) was > 100 µM. The TGI (HT29 colon) was > 100 µM, the TGI (HCT-116 colon) was > 100 µM and the TGI (IGROV1 ovarian) was > 100 µM. The TGI (RXF 393 renal) was > 100 µM, the TGI (OVCAR-3 ovarian) was > 100 µM and the TGI (K-562 leukemia) was > 100 µM. The TGI (OVCAR-4 ovarian) was > 100 µM, the TGI (SK-MEL-28 melanoma) was > 100 µM and the TGI (SNB-19 CNS) was > 100 µM. The TGI (PC-3 prostate) was > 100 µM, the TGI (MOLT-4 leukemia) was > 100 µM and the TGI (LOX IMVI melanoma) was > 100 µM. The TGI (SK-OV-3 ovarian) was > 100 µM, the TGI (NCI-H23 lung) was > 100 µM and the TGI (SF-539 CNS) was > 100 µM. For the same molecule, the TGI (MDA-MB-435) was > 100 µM, the TGI (SF-268 CNS) was > 100 µM and the TGI (A549 NSCLC) was > 100 µM. For the same molecule, the TGI (SK-MEL-5 melanoma) was > 100 µM, the TGI (SNB-75 CNS) was > 100 µM and the TGI (KM12 colon) was > 100 µM. For the same molecule, the TGI (NCI-H460 lung) was > 100 µM, the TGI (HCT-15 colon) was > 100 µM and the TGI (ACHN renal) was > 100 µM. For the same molecule, the TGI (T-47D breast) was > 100 µM, the TGI (A498 renal) was > 100 µM and the TGI (MDA-N) was > 100 µM. The TGI (MDA-MB-231 breast) was > 100 µM, the TGI (UACC-257 melanoma) was > 100 µM and the TGI (OVCAR-5 ovarian) was > 100 µM. The TGI (COLO 205 colon) was > 100 µM, the TGI (NCI/ADR-RES ovarian) was > 100 µM and the TGI (CCRF-CEM leukemia) was > 100 µM. For the same molecule, the TGI (M14 melanoma) was > 100 µM, the TGI (BT-549 breast) was > 100 µM and the TGI (HS 578T breast) was > 100 µM. For the same molecule, the TGI (SF-295 CNS) was > 100 µM, the TGI (HCC-2998 colon) was > 100 µM and the TGI (SN12C renal) was > 100 µM. For the same molecule, the TGI (NCI-H522 lung) was > 100 µM.

In the case of COc1ccc(-c2cc(=O)c3c(O)cc(O)cc3o2)cc1OC, the TGI (U251 CNS) is reported as > 100 µM, the TGI (786-0 renal) is reported as > 100 µM and the TGI (MALME-3M melanoma) is reported as > 100 µM. The TGI (EKVX NSCLC) was > 100 µM, the TGI (HOP-62 NSCLC) was > 100 µM and the TGI (NCI-H226 lung) was > 100 µM. For the same molecule, the TGI (SR leukemia) was 33.5 µM, the TGI (DU-145 prostate) was > 100 µM and the TGI (SK-MEL-2 melanoma) was > 100 µM. For the same molecule, the TGI (SW-620 colon) was > 100 µM, the TGI (HL-60(TB) leukemia) was > 100 µM and the TGI (TK-10 renal) was > 100 µM. For the same molecule, the TGI (MCF7 breast) was > 100 µM, the TGI (HOP-92 NSCLC) was 16.4 µM and the TGI (RPMI-8226 leukemia) was > 100 µM. The TGI (UO-31 renal) was > 100 µM, the TGI (UACC-62 melanoma) was > 100 µM and the TGI (HT29 colon) was > 100 µM. For the same molecule, the TGI (HCT-116 colon) was > 100 µM, the TGI (IGROV1 ovarian) was > 100 µM and the TGI (RXF 393 renal) was > 100 µM. For the same molecule, the TGI (OVCAR-3 ovarian) was > 100 µM, the TGI (K-562 leukemia) was > 100 µM and the TGI (OVCAR-4 ovarian) was > 100 µM. The TGI (SK-MEL-28 melanoma) was > 100 µM, the TGI (SNB-19 CNS) was > 100 µM and the TGI (PC-3 prostate) was > 100 µM. The TGI (MOLT-4 leukemia) was > 100 µM, the TGI (LOX IMVI melanoma) was > 100 µM and the TGI (SK-OV-3 ovarian) was > 100 µM. The TGI (NCI-H23 lung) was > 100 µM, the TGI (SF-539 CNS) was > 100 µM and the TGI (MDA-MB-435) was > 100 µM. For the same molecule, the TGI (SF-268 CNS) was > 100 µM, the TGI (A549 NSCLC) was > 100 µM and the TGI (SK-MEL-5 melanoma) was > 100 µM. The TGI (SNB-75 CNS) was 37.1 µM, the TGI (KM12 colon) was > 100 µM and the TGI (NCI-H460 lung) was > 100 µM. For the same molecule, the TGI (HCT-15 colon) was > 100 µM, the TGI (ACHN renal) was > 100 µM and the TGI (T-47D breast) was > 100 µM. The TGI (A498 renal) was 45.2 µM, the TGI (MDA-N) was > 100 µM and the TGI (MDA-MB-231 breast) was > 100 µM. For the same molecule, the TGI (UACC-257 melanoma) was > 100 µM, the TGI (OVCAR-5 ovarian) was > 100 µM and the TGI (COLO 205 colon) was > 100 µM. The TGI (NCI/ADR-RES ovarian) was > 100 µM, the TGI (CCRF-CEM leukemia) was > 100 µM and the TGI (M14 melanoma) was > 100 µM. For the same molecule, the TGI (BT-549 breast) was > 100 µM, the TGI (HS 578T breast) was > 100 µM and the TGI (SF-295 CNS) was > 100 µM. The TGI (HCC-2998 colon) was > 100 µM, the TGI (SN12C renal) was > 100 µM and the TGI (NCI-H522 lung) was 59.1 µM.
